The text below walks through data of US4486445A, “Justicidin insecticidal and antiviral compounds” (E. I. Du Pont de Nemours and Company, priority 1983, dated 1984).

≈ marks a conversion by molar mass, not a printed value. Read-outs that look alike come from different tables or passages of the source.

Data set [1] concerns Human Rhino Virus (HRV-2). Kind of data set: inhibition of HRV-2 in HeLa cells. The class given is cell-based, Human rhinovirus HRV-2. To be noted: Rhinovirus A; for inhibition at 0.016 µg/mL: HRV2, 0.016 μg/ml; for inhibition at 0.08 µg/mL: HRV2, 0.08 μg/ml; for inhibition at 0.4 µg/mL: HRV2, 0.4 μg/ml; for inhibition at 2 µg/mL: HRV2, 2 μg/ml; for inhibition at 10 µg/mL: HRV2, 10 μg/ml.

A further data set deals with Aedes egypti larvae. Kind of data set: insecticidal activity against larvae of A. egypti in water. Format: in vivo. To be noted: larvae of A. egypti in H2O; for LC50: Aedes, read-out: EC50 (effective kill concentration for 50% of the experimental larvae). The method, then: The insecticidal activity of the crude acetone/water extracts of Justicia extensa, prepared according to the isolation procedure described previously, was tested against laboratory cultures of the mosquito species Aedes egypti (Linnaeus) and southern army worm (SAW) Spodoptera eridania (Cramer). Extracts of leaves, branches and roots were employed in each test.
In tests against larvae of A. egypti, 10 mg of the crude plant extract was thoroughly dispersed in 20 ml of water in a test tube to which 10 first instar larvae were added.

A further data set deals with HeLa cells. Format: cell-based.
A further data set deals with Herpes Type 1-strain VR3. Kind of data set: plaque formation inhibition, Herpes Type 1 in HeLa cells. Format: cell-based. To be noted: for antiviral activity against Herpes Type 1: HeLa cells.
Data set [2] deals with Herpes Type 2-Alabama strain. Kind of data set: plaque formation inhibition, Herpes Type 2 in HeLa cells. Format: cell-based. To be noted: for antiviral activity against Herpes Type 2: HeLa cells.
In a further data set the test system is A/JAX inbred mice. Kind of data set: in vivo oral toxicity in A/JAX inbred mice. The settings on record: orally, 200 and 100 mg/kg. The method, then:
In vivo toxicity studies of natural and synthetic Justicidin P produced mixed results. […] However, natural and synthetic Justicidin P were toxic to A/JAX inbred mice when administered orally at dosages of 200 and 100 mg/kg.

The next data set deals with fish. The settings on record: in vivo, cited from earlier work.
Data set [3] relates to mosquito larvae of the species Culex pipiens pallens. The settings on record: mixtures with pyrethrin or allethrin; cited from earlier work.
The next data set deals with IMR-90 cells. To be noted: substantially similar test conditions.

For `COc1cc2c(OC)c3c(c(-c4ccc5c(c4)OCO5)c2cc1OC)C(=O)OC3F` (racemic) [Compound 14, (±)-9-(1,3-Benzodioxol-5-yl)-3-fluoro-4,6,7-trimethoxynaphtho[2,3-c]furan-1(3H)-one], in data set [1] (400 PFU), the inhibition – broadly, the drop in the measured response relative to a control, in per cent – at 0.016 µg/mL amounted to 0%; the inhibition at 0.08 µg/mL is 0%; the inhibition at 0.4 µg/mL was determined as 0%; the inhibition at 2 µg/mL worked out at 21%. Moreover, the inhibition at 10 µg/mL in data set [1] (400 PFU) is 79%. Moreover, the LC50 with Aedes egypti larvae amounted to 0.7 µg/mL (≈ 1.7 µM).
`COc1cc2c(OC)c3c(c(-c4ccc5c(c4)OCO5)c2cc1OC)C(=O)OC3OC(C)=O` (racemic) [Compound 15]: in data set [1] (400 PFU), the inhibition at 0.016 µg/mL is 0%, the inhibition at 0.08 µg/mL came out at 0%, the inhibition at 0.4 µg/mL is 0% and the inhibition at 2 µg/mL is 0%. Moreover, in data set [1] (400 PFU), the inhibition at 10 µg/mL amounted to 72%. Further, in the data set on Aedes egypti larvae, the LC50 amounted to 1 µg/mL (≈ 2.21 µM).
Regarding `COc1cc2c(OC)c3c(c(-c4ccc5c(c4)OCO5)c2cc1OC)C(=O)OC3O` (racemic) [Compound 16, (±)-9-(1,3-Benzodioxol-5-yl)-3-hydroxy-4,6,7-trimethoxynaphtho[2,3-c]furan-1(3H)-one], in [1] (400 PFU), the inhibition at 0.016 µg/mL came out at 0%, the inhibition at 0.08 µg/mL is 0%, the inhibition at 0.4 µg/mL stood at 0% and the inhibition at 2 µg/mL turned out to be 0%. Besides, the inhibition at 10 µg/mL in data set [1] (400 PFU) is 98%. Besides, the LC50 in the data set on Aedes egypti larvae amounted to 10 µg/mL (≈ 24.4 µM).
With `CCCOC1OC(=O)c2c1c(OC)c1cc(OC)c(OC)cc1c2-c1ccc2c(c1)OCO2` (racemic) [Compound 17, (±)-9-(1,3-Benzodioxol-5-yl)-3-propoxy-4,6,7-trimethoxynaphtho[2,3-c]furan-1(3H)-one], in [1] (200 PFU), the inhibition at 0.016 µg/mL was at least 100%, the inhibition at 0.08 µg/mL is at least 100%, the inhibition at 0.4 µg/mL was at least 100% and the inhibition at 2 µg/mL was at least 74%. In the data set with Aedes egypti larvae, the LC50 came to 0.8 µg/mL (≈ 1.77 µM). In addition, the cytotoxicity result in the data set with HeLa cells (1 μg/ml) is on record as “cytotoxic”. In addition, the inhibition at 0.1 µg/mL in the data set with Herpes Type 1-strain VR3 (0.1 μg/ml, HeLa, read-out: plaque formation inhibition against Type 1 (average)) came out at 71%. Besides, in the data set with Herpes Type 1-strain VR3, the “antiviral activity against Herpes Type 1” value is on record as “demonstrated antiviral activity”. For the same compound, the inhibition at 0.1 µg/mL in [2] (0.1 μg/ml, HeLa, read-out: plaque formation inhibition against Type 2 (average)) came to 91%. In [2], the “antiviral activity against Herpes Type 2” value is given as “demonstrated antiviral activity”.
Take `COc1cc2c(OC)c3c(c(-c4ccc5c(c4)OCO5)c2cc1OC)C(=O)OC3OC` (racemic) [Justicidin P (synthetic), (±)-9-(1,3-Benzodioxol-5-yl)-3,4,6,7-tetramethoxynaphtho[2,3-c]furan-1(3H)-one]: in [1] (400 PFU), the inhibition at 0.016 µg/mL stood at 0%, the inhibition at 0.08 µg/mL was 0%, the inhibition at 0.4 µg/mL amounted to 0% and the inhibition at 2 µg/mL is 73%. In data set [1] (400 PFU), the inhibition at 10 µg/mL worked out at 43%. In addition, the in vivo toxicity entry in the data set on A/JAX inbred mice is reported as “toxic”. In addition, the LC50 in the data set on Aedes egypti larvae worked out at 0.01 µg/mL (≈ 0.0236 µM).
For `CCCCCCCSC1OC(=O)c2c1c(OC)c1cc(OC)c(OC)cc1c2-c1ccc2c(c1)OCO2` (stereo not drawn) [Compound 18], in data set [1] (200 PFU), the inhibition at 0.016 µg/mL turned out to be 80%, the inhibition at 0.08 µg/mL is at least 100% and the inhibition at 0.4 µg/mL is at least 100%. The cytotoxicity result in the data set with HeLa cells (64 and 16 μg/ml) is reported as “cytotoxic”. Besides, in the data set with Herpes Type 1-strain VR3 (1 μg/ml, HeLa, read-out: inhibition against Type 1), the inhibition at 1 µg/mL is 17%. Also, the inhibition at 4 µg/mL in the data set with Herpes Type 1-strain VR3 (4 μg/ml, HeLa, read-out: inhibition against Type 1) was 81%. For the same compound, in the data set with Herpes Type 1-strain VR3, the “antiviral activity against Herpes Type 1” value is recorded as “demonstrated antiviral activity”. In addition, in [2] (1 μg/ml, HeLa, read-out: inhibition against Type 2), the inhibition at 1 µg/mL is 16%. For the same compound, in data set [2] (4 μg/ml, HeLa, read-out: inhibition against Type 2), the inhibition at 4 µg/mL stood at 77%. Further, the “antiviral activity against Herpes Type 2” value in [2] is “demonstrated antiviral activity”.
In the case of `COc1cc2c(OC)c3c(c(-c4ccc5c(c4)OCO5)c2cc1OC)C(=O)OC3OC(C)C` (stereo not drawn) [Compound 19], in [1] (200 PFU), the inhibition at 0.016 µg/mL is 100%, the inhibition at 0.08 µg/mL was at least 100%, the inhibition at 0.4 µg/mL amounted to 107% and the inhibition at 2 µg/mL was found to be 14%. Moreover, the LC50 with Aedes egypti larvae amounted to 0.7 µg/mL (≈ 1.55 µM). The cytotoxicity result with HeLa cells (1, 4, 16 and 64 μg/ml) is reported as “demonstrated cytotoxic properties”.
`CCCCCCCCCCCCOC1OC(=O)c2c1c(OC)c1cc(OC)c(OC)cc1c2-c1ccc2c(c1)OCO2` (stereo not drawn) [Compound 20]: in [1] (200 PFU), the inhibition at 0.016 µg/mL was 0%, the inhibition at 0.08 µg/mL turned out to be 0%, the inhibition at 0.4 µg/mL was determined as 10% and the inhibition at 2 µg/mL turned out to be 74%. Also, the inhibition at 10 µg/mL in data set [1] (200 PFU) is 83%.
Take `COc1cc2c(O)c3c(c(-c4ccc5c(c4)OCO5)c2cc1OC)C(=O)OC3` [Diphyllin, 9-(1,3-Benzodioxol-5-yl)-6,7-dimethoxy-4-hydroxynaphtho[2,3-c]furan-1(3H)-one, reference compound]: in the data set with Aedes egypti larvae, the “EC50 (effective kill concentration for 50% of the experimental larvae)” value is listed as “not active”.
As for `COc1cc2c(OC)c3c(c(-c4ccc5c(c4)OCO5)c2cc1OC)C(=O)OC3` [Justicidin A, 9-(1,3-Benzodioxol-5-yl)-4,6,7-trimethoxynaphtho[2,3-c]furan-1(3H)-one], the LC50 in the data set on Aedes egypti larvae is 10 µg/mL (≈ 25.4 µM). In addition, the piscicidal activity entry is given as “extraordinary piscicidal activity” in the data set on fish and “active piscicidal components” with fish (listed as justicidins A). In addition, the synergistic behavior entry in data set [3] is reported as “synergistic behavior was observed”.
Consider `COc1cc2cc3c(c(-c4ccc5c(c4)OCO5)c2cc1OC)C(=O)OC3` [Justicidin B], for which the values for the piscicidal activity result in the data set with fish and in the data set with fish (listed as B) were “extraordinary piscicidal activity” and “active piscicidal components”, respectively. In addition, the synergistic behavior result in [3] is given as “synergistic behavior was observed”.
For the compound `Nc1nc2c(ncn2COCCO)c(=O)[nH]1` [acyclovir, 9-(2-hydroxy-ethoxymethyl)guanine, reference compound], in data set [1] (400 PFU), the inhibition at 0.016 µg/mL is 0%, the inhibition at 0.08 µg/mL was 0%, the inhibition at 0.4 µg/mL was determined as 0% and the inhibition at 2 µg/mL is 0%. Further, in [1] (400 PFU), the inhibition at 10 µg/mL was 0%. Also, the “sensitivity of IMR-90 cells” value in the data set on IMR-90 cells was “sensitive”. Besides, the inhibition at 8 µg/mL in the data set on Herpes Type 1-strain VR3 (HeLa, 8 μg/ml, similar test conditions) amounted to 90%. In addition, the “inhibition of Type 2 plaque formation” value in [2] (range between 0.5 μg/ml and 8 μg/ml, similar test conditions) is 90-99%.
